According to paper PMC8881077 (Journal of Enzyme Inhibition and Medicinal Chemistry, 2022):
Where two headings read alike, the source gives them in different places.

Tests used:
[1] = target: T1, ratAChE (Rattus norvegicus, UniProt P37136); assay: biochemical; settings: for SI: Selectivity Index = IC50 (BuChE)/IC50 (AChE), rat enzymes; for IC50: from 5% rat cortex homogenate
T1 construct: AChE from 5% rat cortex homogenate or human erythrocytes (Sigma Co.); from tissue; host or cells: 5% rat cortex homogenate
T1 sequence (P37136 32-614): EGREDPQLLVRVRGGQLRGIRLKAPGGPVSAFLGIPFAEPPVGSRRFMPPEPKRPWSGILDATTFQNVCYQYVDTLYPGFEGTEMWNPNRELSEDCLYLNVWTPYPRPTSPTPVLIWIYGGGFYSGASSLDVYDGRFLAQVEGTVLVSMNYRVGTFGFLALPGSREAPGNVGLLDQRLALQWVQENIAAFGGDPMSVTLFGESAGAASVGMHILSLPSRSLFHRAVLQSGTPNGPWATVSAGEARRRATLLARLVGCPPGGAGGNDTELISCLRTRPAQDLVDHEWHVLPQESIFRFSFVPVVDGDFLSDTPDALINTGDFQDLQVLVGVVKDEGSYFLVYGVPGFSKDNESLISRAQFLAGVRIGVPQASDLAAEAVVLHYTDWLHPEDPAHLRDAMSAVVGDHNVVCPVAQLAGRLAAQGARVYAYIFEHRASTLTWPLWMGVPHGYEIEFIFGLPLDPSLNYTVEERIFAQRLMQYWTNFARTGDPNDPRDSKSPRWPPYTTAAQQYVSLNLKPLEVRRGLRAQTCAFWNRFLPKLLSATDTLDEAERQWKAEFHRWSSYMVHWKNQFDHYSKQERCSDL
Protocol: (§1) The AChE and BuChE inhibitory activities of the synthesised compounds were evaluated using the Ellman assay with slight modification. AChE from 5% rat cortex homogenate or human erythrocytes (Sigma Co.). BuChE from rat serum or human serum (Sigma Co.).

[2] = target: T2, ratBuChE (Rattus norvegicus, UniProt Q9JKC1); assay: ratBuChE inhibition, modified Ellman's method; assay type: biochemical
T2 construct: BuChE from rat serum or human serum (Sigma Co.); from tissue; host or cells: rat serum
T2 sequence (Q9JKC1 24-597): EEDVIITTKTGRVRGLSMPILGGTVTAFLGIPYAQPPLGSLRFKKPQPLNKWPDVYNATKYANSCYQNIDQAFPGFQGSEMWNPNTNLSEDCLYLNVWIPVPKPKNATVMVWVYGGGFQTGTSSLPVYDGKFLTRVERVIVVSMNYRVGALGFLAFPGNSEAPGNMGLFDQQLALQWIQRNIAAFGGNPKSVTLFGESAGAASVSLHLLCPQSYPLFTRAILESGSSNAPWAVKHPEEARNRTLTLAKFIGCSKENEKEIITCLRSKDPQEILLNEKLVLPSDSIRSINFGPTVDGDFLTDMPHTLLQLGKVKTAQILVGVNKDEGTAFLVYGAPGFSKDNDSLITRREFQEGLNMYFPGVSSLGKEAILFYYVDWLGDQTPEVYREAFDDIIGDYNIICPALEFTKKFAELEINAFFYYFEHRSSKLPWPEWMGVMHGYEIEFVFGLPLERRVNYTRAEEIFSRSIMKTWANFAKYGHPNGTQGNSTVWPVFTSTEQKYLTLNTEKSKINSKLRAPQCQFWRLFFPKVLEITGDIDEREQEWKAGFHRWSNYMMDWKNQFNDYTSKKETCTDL
Protocol: as §1

[3] = Trolox as standard
Protocol: The skeleton compounds naringenin and apigenin were also evaluated for comparison purposes, and vitamin E analogue Trolox was used as a standard.
The antioxidant potency of target compounds was tested using an oxygen radical absorbance capacity fluorescein (ORAC-FL) assay.

[4] = tested on: PC12 cells; assay: Neuroprotective effect on H2O2-induced PC12 cells injury, MTT assay; assay type: cell-based; settings: compound 100 μM, 100 μM H2O2, PC12 cells

| Compound | SI [1] | IC50 ([1]; read-out: IC50 ± SD ratAChE) [µM] | IC50 [2] [µM] | ORAC [3] | IC50 ([1]; IC50 ± SD ratAChE) [µM] | cell viability [4] [%] |
| --- | --- | --- | --- | --- | --- | --- |
| O=C1CC(c2ccc(O)cc2)Oc2cc(OCCCCN3CCN(Cc4ccccc4)CC3)cc(O)c21 (stereo not drawn) [Compound 5e, 7–(4-(4-benzylpiperazin-1-yl)butoxy)-5-hydroxy-2–(4-hydroxyphenyl)chroman-4-one] | 1.4 | 9.2 ± 0.72 | 13.2 ± 0.43 | 2.5 ± 0.01 μM of Trolox equivalent/μM of tested compound |  |  |
| O=C1CC(c2ccc(OCCCN3CCc4ccccc4C3)cc2)Oc2cc(OCCCN3CCc4ccccc4C3)cc(O)c21 (stereo not drawn) [Compound 7a, 7–(3-(3,4-dihydroisoquinolin-2(1H)-yl)propoxy)-2–(4-(3–(3,4-dihydroisoquinolin-2(1H)-yl)propoxy)phenyl)-5-hydroxychroman-4-one] | 2.0 | 10.1 ± 0.41 | 20.2 ± 0.23 | 1.1 ± 0.02 μM of Trolox equivalent/μM of tested compound |  |  |
| O=c1cc(-c2ccc(OCCCN3CCC(Cc4ccccc4)CC3)cc2)oc2cc(OCCCN3CCC(Cc4ccccc4)CC3)cc(O)c12 [Compound 10c, 7–(3-(4-benzylpiperidin-1-yl)propoxy)-2–(4-(3–(4-benzylpiperidin-1-yl)propoxy)phenyl)-5-hydroxy-4H-chromen-4-one] | 2.5 | 5.5 ± 0.17 | 13.6 ± 0.67 | 1.2 ± 0.03 μM of Trolox equivalent/μM of tested compound |  |  |
| O=C1CC(c2ccc(O)cc2)Oc2cc(OCCCCCN3CCC(Cc4ccccc4)CC3)cc(O)c21 (stereo not drawn) [Compound 5g, 7-((5–(4-benzylpiperidin-1-yl)pentyl)oxy)-5-hydroxy-2–(4-hydroxyphenyl)chroman-4-one] | 7.5 | 2.5 ± 0.33 | 18.7 ± 0.33 | 2.1 ± 0.02 μM of Trolox equivalent/μM of tested compound |  |  |
| CCN(CCCCCCOc1ccc(C2CC(=O)c3c(O)cc(OCCCCCCN(CC)Cc4ccccc4)cc3O2)cc1)Cc1ccccc1 (stereo not drawn) [Compound 7l] | 6.9 | 2.2 ± 0.13 | 15.1 ± 0.28 | 1.2 ± 0.01 μM of Trolox equivalent/μM of tested compound |  |  |
| CCN(CCCCCCOc1ccc(-c2cc(=O)c3c(O)cc(OCCCCCCN(CC)Cc4ccccc4)cc3o2)cc1)Cc1ccccc1 [Compound 10r, 7-((6-(benzyl(ethyl)amino)hexyl)oxy)-2–(4-((6-(benzyl(ethyl)amino)hexyl)oxy)phenyl)-5-hydroxy-4H-chromen-4-one] | 8.3 | 1.7 ± 0.21 | 14.1 ± 0.22 | 1.2 ± 0.04 μM of Trolox equivalent/μM of tested compound |  |  |
| CCN(CCCOc1ccc(-c2cc(=O)c3c(O)cc(OCCCN(CC)Cc4ccccc4)cc3o2)cc1)Cc1ccccc1 [Compound 10b, 7–(3-(benzyl(ethyl)amino)propoxy)-2–(4-(3-(benzyl(ethyl)amino)propoxy)phenyl)-5-hydroxy-4H-chromen-4-one] | 4.3 | 4.3 ± 0.38 | 18.6 ± 0.24 | 1.0 ± 0.04 μM of Trolox equivalent/μM of tested compound |  |  |
| CCN(CCCCOc1cc(O)c2c(c1)OC(c1ccc(O)cc1)CC2=O)Cc1ccccc1 (stereo not drawn) [Compound 5c, 7–(4-(benzyl(ethyl)amino)butoxy)-5-hydroxy-2–(4-hydroxyphenyl)chroman-4-one] | 5.8 | 3.9 ± 0.44 | 22.6 ± 0.23 | 2.3 ± 0.02 μM of Trolox equivalent/μM of tested compound |  |  |
| O=C1CC(c2ccc(OCCCN3CCC(Cc4ccccc4)CC3)cc2)Oc2cc(OCCCN3CCC(Cc4ccccc4)CC3)cc(O)c21 (stereo not drawn) [Compound 7c, 7–(3-(4-benzylpiperidin-1-yl)propoxy)-2–(4-(3–(4-benzylpiperidin-1-yl)propoxy)phenyl)-5-hydroxychroman-4-one] | 2.9 | 6.7 ± 0.16 | 19.4 ± 0.28 | 1.2 ± 0.02 μM of Trolox equivalent/μM of tested compound |  |  |
| O=c1cc(-c2ccc(OCCCCN3CCC(Cc4ccccc4)CC3)cc2)oc2cc(OCCCCN3CCC(Cc4ccccc4)CC3)cc(O)c12 [Compound 10j, 7–(4-(4-Benzylpiperidin-1-yl)butoxy)-2–(4–(4-(4-benzylpiperidin-1-yl)butoxy)phenyl)-5-hydroxy-4H-chromen-4-one] | 8.7 | 1.8 ± 0.04 | 15.7 ± 0.24 | 1.2 ± 0.03 μM of Trolox equivalent/μM of tested compound |  |  |
| O=c1cc(-c2ccc(OCCCCCCN3CCC(CCCc4ccccc4)CC3)cc2)oc2cc(OCCCCCCN3CCC(CCCc4ccccc4)CC3)cc(O)c12 [Compound 10u, 5-hydroxy-7-((6–(4-(3-phenylpropyl)piperidin-1-yl)hexyl)oxy)-2–(4-((6–(4–(3-phenylpropyl)piperidin-1-yl)hexyl)oxy)phenyl)-4H-chromen-4-one] | 2.7 | 6.3 ± 0.21 | 17.2 ± 0.45 | 1.2 ± 0.03 μM of Trolox equivalent/μM of tested compound |  |  |
| CCN(CCCCCCCCCCCCOc1cc(O)c2c(c1)OC(c1ccc(O)cc1)CC2=O)Cc1ccccc1 (stereo not drawn) [Compound 5j, 7-((12-(benzyl(ethyl)amino)dodecyl)oxy)-5-hydroxy-2–(4-hydroxyphenyl)chroman-4-one] |  | 6.5 ± 0.09 | 15.9 ± 0.37 | 2.2 ± 0.05 μM of Trolox equivalent/μM of tested compound |  |  |
| O=c1cc(-c2ccc(OCCCCCCN3CCC(c4ccccc4)CC3)cc2)oc2cc(OCCCCCCN3CCC(c4ccccc4)CC3)cc(O)c12 [Compound 10t, 5-hydroxy-7-((6–(4-phenylpiperidin-1-yl)hexyl)oxy)-2–(4-((6–(4-phenylpiperidin-1-yl)hexyl)oxy)phenyl)-4H-chromen-4-one] | 3.3 | 5.9 ± 0.37 | 19.3 ± 0.67 | 1.0 ± 0.02 μM of Trolox equivalent/μM of tested compound |  |  |
| O=c1cc(-c2ccc(OCCCCCCN3CCC(Cc4ccccc4)CC3)cc2)oc2cc(OCCCCCCN3CCC(Cc4ccccc4)CC3)cc(O)c12 [Compound 10s, 7-((6–(4-benzylpiperidin-1-yl)hexyl)oxy)-2–(4-((6–(4-benzylpiperidin-1-yl)hexyl)oxy)phenyl)-5-hydroxy-4H-chromen-4-one] | 6.5 | 2.6 ± 0.33 | 16.9 ± 0.54 | 1.1 ± 0.03 μM of Trolox equivalent/μM of tested compound |  |  |
| O=c1cc(-c2ccc(O)cc2)oc2cc(O)cc(O)c12 [apigenin, reference compound] |  |  | > 50 | 5.6 ± 0.52 μM of Trolox equivalent/μM of tested compound | > 50 |  |
| O=c1cc(-c2ccc(OCCCCCN3CCC(CCCc4ccccc4)CC3)cc2)oc2cc(OCCCCCN3CCC(CCCc4ccccc4)CC3)cc(O)c12 [Compound 10o, 5-hydroxy-7-((5–(4-(3-phenylpropyl)piperidin-1-yl)pentyl)oxy)-2–(4-((5–(4–(3-phenylpropyl)piperidin-1-yl)pentyl)oxy)phenyl)-4H-chromen-4-one] | 3.9 | 4.1 ± 0.63 | 16.1 ± 0.25 | 1.2 ± 0.03 μM of Trolox equivalent/μM of tested compound |  |  |
| CC1CC(C)CN(CCCCCOc2ccc(-c3cc(=O)c4c(O)cc(OCCCCCN5CC(C)CC(C)C5)cc4o3)cc2)C1 (stereo not drawn) [Compound 10p, 7-((5–(3,5-dimethylpiperidin-1-yl)pentyl)oxy)-2–(4-((5–(3,5-dimethylpiperidin-1-yl)pentyl)oxy)phenyl)-5-hydroxy-4H-chromen-4-one] | 2.2 | 6.2 ± 0.54 | 13.8 ± 0.37 | 1.1 ± 0.02 μM of Trolox equivalent/μM of tested compound |  |  |
| O=c1cc(-c2ccc(OCCCCCN3CCC(Cc4ccccc4)CC3)cc2)oc2cc(OCCCCCN3CCC(Cc4ccccc4)CC3)cc(O)c12 [Compound 10m, 7-((5–(4-benzylpiperidin-1-yl)pentyl)oxy)-2–(4-((5–(4-benzylpiperidin-1-yl)pentyl)oxy)phenyl)-5-hydroxy-4H-chromen-4-one] | 12.8 | 1.3 ± 0.08 | 16.6 ± 0.27 | 1.2 ± 0.02 μM of Trolox equivalent/μM of tested compound |  |  |
| Vitamine E [reference compound] |  |  |  |  |  | 67.6 |
| CCN(CCCCOc1ccc(C2CC(=O)c3c(O)cc(OCCCCN(CC)Cc4ccccc4OC)cc3O2)cc1)Cc1ccccc1OC (stereo not drawn) [Compound 7h, 7–(4-(ethyl(2-methoxybenzyl)amino)butoxy)-2–(4-(4-(ethyl(2-methoxybenzyl)amino)butoxy)phenyl)-5-hydroxychroman-4-one] | 19.7 | 0.86 ± 0.05 | 16.9 ± 0.34 | 1.0 ± 0.04 μM of Trolox equivalent/μM of tested compound |  |  |
